# Test results: ChEMBL document CHEMBL1201862, “PubChem BioAssay data set” (2004)
#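 The compound was tested at five concentrations on cells cultured in 96-well plates, with a 48-hour exposure period. Here, GI50 denotes the concentration required for 50% inhibition of growth.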 Active and inactive are the calls of the source. Rule as the data show it: active = GI50 up to about 1.1 µM and inactive = higher.
# Assays:
# Experiment in all cases: NCI tumour cell line growth inhibition, 48 h
# COLO 205 = system: COLO 205
# HT-29 = system: HT-29
# KM12 = system: KM12
# M14 = system: M14
# MOLT-4 = system: MOLT-4
# OVCAR-3 = system: OVCAR-3
# OVCAR-4 = system: OVCAR-4
# SF-268 = system: SF-268
# SNB-78 = system: SNB-78
# SW-620 = system: SW-620
# UACC-257 = system: UACC-257
# A498 = system: A498
# RXF 393 = system: RXF 393
# SK-OV-3 = system: SK-OV-3
# BT-549 = system: BT-549
# HOP-92 = system: HOP-92
# Hs-578T = system: Hs-578T
# MCF7 = system: MCF7
# MDA-MB-231 = system: MDA-MB-231
# T47D = system: T47D
SMILES,GI50 (COLO 205),GI50 (HT-29),GI50 (KM12),GI50 (M14),GI50 (MOLT-4),GI50 (OVCAR-3),GI50 (OVCAR-4),GI50 (SF-268),GI50 (SNB-78),GI50 (SW-620),GI50 (UACC-257),GI50 (A498),GI50 (RXF 393),GI50 (SK-OV-3),GI50 (BT-549),GI50 (HOP-92),GI50 (Hs-578T),GI50 (MCF7),GI50 (MDA-MB-231),GI50 (T47D)
COc1cc(/C=C2\C(=O)N(C(=O)Cc3ccccc3)N=C2C)ccc1O,> 100 µM (inactive),> 10 µM (inactive),> 100 µM (inactive),> 100 µM (inactive),> 100 µM (inactive),> 100 µM (inactive),> 100 µM (inactive),> 100 µM (inactive),> 100 µM (inactive),> 100 µM (inactive),> 100 µM (inactive),–,–,–,–,–,–,–,–,–
O=C1C(C2=[N+]([O-])c3ccccc3C2=O)=[N+]([O-])c2ccccc21,17.7 µM (inactive),32.8 µM (inactive),> 10 µM (inactive),16.6 µM (inactive),15.3 µM (inactive),16.3 µM (inactive),14.5 µM (inactive),28.2 µM (inactive),38.3 µM (inactive),21.8 µM (inactive),–,25.4 µM (inactive),31.9 µM (inactive),53.2 µM (inactive),–,–,–,–,–,–
N#Cc1c(-c2ccccc2)cc(Nc2ccc(F)cc2)n2c1nc1ccccc12,1.58 µM (inactive),2.26 µM (inactive),3.52 µM (inactive),3.35 µM (inactive),7.03 µM (inactive),3.13 µM (inactive),4.62 µM (inactive),3.72 µM (inactive),–,4.08 µM (inactive),2.54 µM (inactive),2.74 µM (inactive),2.66 µM (inactive),2.43 µM (inactive),3.24 µM (inactive),1.01 µM (active),< 0.01 µM (active),2.18 µM (inactive),3.83 µM (inactive),1.88 µM (inactive)
O=C(O)CCCc1cc2c(s1)-c1cccc3cccc-2c13,20.3 µM (inactive),> 100 µM (inactive),19.4 µM (inactive),50.1 µM (inactive),24.1 µM (inactive),19.1 µM (inactive),76.9 µM (inactive),39.6 µM (inactive),27.6 µM (inactive),36.2 µM (inactive),22.6 µM (inactive),–,–,19.8 µM (inactive),–,17.7 µM (inactive),–,–,–,–
C[N+](C)(C)C1=NNC2=Nc3ccccc3SC2=C1,15 µM (inactive),13.5 µM (inactive),23.9 µM (inactive),15.7 µM (inactive),13 µM (inactive),19.3 µM (inactive),19.7 µM (inactive),35 µM (inactive),–,24.4 µM (inactive),23 µM (inactive),26.4 µM (inactive),20.4 µM (inactive),23.6 µM (inactive),28.6 µM (inactive),12.1 µM (inactive),30 µM (inactive),18.6 µM (inactive),14.6 µM (inactive),4.11 µM (inactive)
COC(=O)c1c(O)ccc2c1c1c(n2-c2ccc(OC)cc2)C(=O)c2ccccc2C1=O,1.94 µM (inactive),4.14 µM (inactive),14.1 µM (inactive),63.2 µM (inactive),8.28 µM (inactive),22.9 µM (inactive),18.6 µM (inactive),14.8 µM (inactive),–,42.3 µM (inactive),64.9 µM (inactive),> 100 µM (inactive),13 µM (inactive),19.3 µM (inactive),22 µM (inactive),14.8 µM (inactive),16.9 µM (inactive),16.6 µM (inactive),16.5 µM (inactive),11.7 µM (inactive)
CC1=C2C(=O)c3ccccc3C(=O)[C@H]2[C@H]2CCO[C@H]2O1,42.2 µM (inactive),31.2 µM (inactive),24.5 µM (inactive),20.6 µM (inactive),30.5 µM (inactive),19.1 µM (inactive),19.5 µM (inactive),17.7 µM (inactive),–,21.1 µM (inactive),18.5 µM (inactive),> 100 µM (inactive),14.4 µM (inactive),50.4 µM (inactive),13.3 µM (inactive),20 µM (inactive),41.7 µM (inactive),0.3 µM (active),24.2 µM (inactive),34.7 µM (inactive)
COc1cc(CNC(=O)CCCCCCCCCCSSCCCCCCCCCCC(=O)NCc2ccc(O)c(OC)c2)ccc1O,> 10 µM (inactive),> 10 µM (inactive),> 10 µM (inactive),> 10 µM (inactive),> 10 µM (inactive),> 10 µM (inactive),> 10 µM (inactive),> 10 µM (inactive),–,> 10 µM (inactive),> 10 µM (inactive),> 10 µM (inactive),0.184 µM (active),> 10 µM (inactive),> 10 µM (inactive),> 10 µM (inactive),> 10 µM (inactive),> 10 µM (inactive),> 10 µM (inactive),> 10 µM (inactive)
C[N+]12C=CC=C1C(N1CCCC1)c1scc(-c3ccc(Br)cc3)c12 (configuration not stated),12.5 µM (inactive),22.2 µM (inactive),12.1 µM (inactive),27.7 µM (inactive),15.8 µM (inactive),6.38 µM (inactive),35.3 µM (inactive),3.15 µM (inactive),–,41.2 µM (inactive),7.36 µM (inactive),47.2 µM (inactive),10.2 µM (inactive),> 81.7 µM (inactive),1.79 µM (inactive),12 µM (inactive),1.98 µM (inactive),22.9 µM (inactive),23.9 µM (inactive),4.61 µM (inactive)
CNC1Cc2c[nH]c3cccc(c23)C12C=C(C)C(=O)O2 (configuration not stated),> 100 µM (inactive),> 100 µM (inactive),> 100 µM (inactive),> 100 µM (inactive),> 100 µM (inactive),> 100 µM (inactive),> 100 µM (inactive),> 100 µM (inactive),–,> 100 µM (inactive),> 100 µM (inactive),> 100 µM (inactive),> 100 µM (inactive),> 100 µM (inactive),> 100 µM (inactive),> 100 µM (inactive),> 100 µM (inactive),> 100 µM (inactive),> 100 µM (inactive),> 100 µM (inactive)
C=C1C(=O)C=C[C@]2(C)CC[C@H]3C(=C)C(=O)O[C@@H]3[C@@H]12,0.964 µM (active),1.56 µM (inactive),1.61 µM (inactive),1.76 µM (inactive),0.52 µM (active),1.85 µM (inactive),2.21 µM (inactive),3.15 µM (inactive),–,0.813 µM (active),2.67 µM (inactive),3.52 µM (inactive),1.45 µM (inactive),8.73 µM (inactive),2.35 µM (inactive),2.87 µM (inactive),4.1 µM (inactive),0.738 µM (active),4.08 µM (inactive),2.22 µM (inactive)
CN/C(=N\N=C1/C(=O)Nc2ccccc21)SCC(=O)c1ccc(Br)cc1,41.8 µM (inactive),8.59 µM (inactive),7.53 µM (inactive),11.7 µM (inactive),2.86 µM (inactive),7.08 µM (inactive),21.5 µM (inactive),18.6 µM (inactive),–,2.42 µM (inactive),7.66 µM (inactive),17.4 µM (inactive),5.04 µM (inactive),9.04 µM (inactive),68.1 µM (inactive),20.7 µM (inactive),10.9 µM (inactive),3.48 µM (inactive),5.81 µM (inactive),9.48 µM (inactive)
NCCCNc1ccc2c(c1)[n+]([O-])c1ccccc1[n+]2[O-],18.3 µM (inactive),28.6 µM (inactive),25.4 µM (inactive),13.8 µM (inactive),15.7 µM (inactive),19.8 µM (inactive),25 µM (inactive),27.1 µM (inactive),–,33 µM (inactive),27.2 µM (inactive),17.2 µM (inactive),20.1 µM (inactive),14.2 µM (inactive),13.6 µM (inactive),12.7 µM (inactive),18.5 µM (inactive),13.9 µM (inactive),19.9 µM (inactive),22.7 µM (inactive)
CC(=O)OCCOc1cc2c([nH]c3ccccc32)c(C)c2cccc1-2,1.7 µM (inactive),3.78 µM (inactive),2.34 µM (inactive),2.48 µM (inactive),3.33 µM (inactive),2.01 µM (inactive),1.77 µM (inactive),2.47 µM (inactive),–,2.7 µM (inactive),1.91 µM (inactive),8.93 µM (inactive),1.95 µM (inactive),4.3 µM (inactive),2.75 µM (inactive),1.86 µM (inactive),3.47 µM (inactive),2.94 µM (inactive),1.66 µM (inactive),1.92 µM (inactive)
Nc1[nH]nc2ccccc12,> 100 µM (inactive),> 100 µM (inactive),> 100 µM (inactive),> 100 µM (inactive),> 100 µM (inactive),> 100 µM (inactive),> 100 µM (inactive),> 100 µM (inactive),–,> 100 µM (inactive),> 100 µM (inactive),> 100 µM (inactive),> 100 µM (inactive),> 100 µM (inactive),> 100 µM (inactive),> 100 µM (inactive),> 100 µM (inactive),> 100 µM (inactive),> 100 µM (inactive),> 100 µM (inactive)
CC1(C)CC(/C=C2/OC(=O)c3ccccc32)=C(C#N)C(=O)O1,> 100 µM (inactive),> 100 µM (inactive),> 100 µM (inactive),> 100 µM (inactive),> 100 µM (inactive),> 100 µM (inactive),18.6 µM (inactive),> 100 µM (inactive),> 100 µM (inactive),> 100 µM (inactive),> 100 µM (inactive),–,–,> 100 µM (inactive),–,–,–,–,–,–
